pIC50: −log10 of the molar value.
Target: T1, CDK9/CyclinT1 (Homo sapiens, UniProt P50750)
T1 construct: Recombinant full-length His-tagged human CDK9 and CycT1; His-tag; purchased Life Technologies PV4131; host or cells: insect cells
Test: CDK9/CycT1 high ATP kinase assay (TR-FRET)
Assay type: biochemical
Conditions: 2 mM ATP (high ATP); median; read-out: CDK9/CyclinT1, 2 mM ATP (high ATP) IC50 - [mol/l] (median)
Method in brief: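 Full-length His-tagged human CDK9/CycT1 (insect cell) at ~0.5 µg/mL, preincubated with compound 15 min at 22 °C in Tris pH 8.0 buffer, then reacted 25 min with 2 mM ATP and 0.75 µM biotinylated peptide (final). Phospho-substrate detected by TR-FRET (anti-RB pSer807/811, Eu/XL665), 665/620 nm ratio normalised to no-inhibitor and no-enzyme controls.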

T1 sequence (P50750 whole entry): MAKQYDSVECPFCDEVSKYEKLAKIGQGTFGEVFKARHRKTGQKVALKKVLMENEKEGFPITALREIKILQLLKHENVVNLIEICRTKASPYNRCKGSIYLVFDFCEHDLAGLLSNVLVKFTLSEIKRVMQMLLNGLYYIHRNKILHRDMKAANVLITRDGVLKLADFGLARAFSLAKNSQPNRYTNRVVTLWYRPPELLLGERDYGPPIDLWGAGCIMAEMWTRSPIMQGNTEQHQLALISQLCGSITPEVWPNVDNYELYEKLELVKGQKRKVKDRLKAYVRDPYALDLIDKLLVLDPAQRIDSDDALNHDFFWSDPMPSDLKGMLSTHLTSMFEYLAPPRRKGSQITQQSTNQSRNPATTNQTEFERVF
T1 sequence (O60563 whole entry partner): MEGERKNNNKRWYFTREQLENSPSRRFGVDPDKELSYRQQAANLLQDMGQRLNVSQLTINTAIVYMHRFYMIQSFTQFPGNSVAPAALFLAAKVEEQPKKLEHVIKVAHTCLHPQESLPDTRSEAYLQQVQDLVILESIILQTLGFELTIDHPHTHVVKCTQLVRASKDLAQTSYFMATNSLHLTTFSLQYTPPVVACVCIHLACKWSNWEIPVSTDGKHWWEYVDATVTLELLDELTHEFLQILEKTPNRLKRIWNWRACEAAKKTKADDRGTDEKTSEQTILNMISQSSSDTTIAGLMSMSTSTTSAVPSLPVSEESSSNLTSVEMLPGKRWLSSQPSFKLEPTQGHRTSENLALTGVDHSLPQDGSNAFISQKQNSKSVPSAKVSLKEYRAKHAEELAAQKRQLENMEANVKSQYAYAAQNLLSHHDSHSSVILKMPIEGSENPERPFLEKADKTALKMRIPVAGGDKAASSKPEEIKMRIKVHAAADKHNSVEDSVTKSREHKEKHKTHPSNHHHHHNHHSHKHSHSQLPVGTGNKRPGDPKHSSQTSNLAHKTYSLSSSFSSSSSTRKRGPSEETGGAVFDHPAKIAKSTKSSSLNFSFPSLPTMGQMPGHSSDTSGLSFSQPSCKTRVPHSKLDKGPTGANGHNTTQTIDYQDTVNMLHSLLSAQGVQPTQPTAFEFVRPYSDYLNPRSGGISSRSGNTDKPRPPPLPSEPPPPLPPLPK

pIC50: < 4.70
Structure (SMILES): c1ccc2[nH]c(CNc3nn(C4CCC4)c4nc(C5CC5)cnc34)nc2c1 [Example 49, N-[(1H-benzimidazol-2-yl)methyl]-1-cyclobutyl-6-cyclopropyl-1H-pyrazolo[3,4-b]pyrazin-3-amine]

Source: patent US20230192700A1, “PYRAZOLOPYRAZINES ACTING ON CANCERS VIA INHIBITION OF CDK12” (Bayer Aktiengesellschaft, priority 2020, published 2023)
